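Abbreviation: GI50, concentration required for 50% inhibition of growth. Definition used: TGI = concentration required for complete inhibition of growth.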
How the values were obtained:
Assay in all cases: NCI-60 cell line screen, 384-well format
COLO 205 colon = tested on: COLO 205 colon
SF-268 CNS = tested on: SF-268 CNS
UO-31 renal = tested on: UO-31 renal
OVCAR-4 ovarian = tested on: OVCAR-4 ovarian
MDA-MB-231 breast = tested on: MDA-MB-231 breast
OVCAR-8 ovarian = tested on: OVCAR-8 ovarian
CAKI-1 renal = tested on: CAKI-1 renal
SNB-19 CNS = tested on: SNB-19 CNS
HOP-62 NSCLC = tested on: HOP-62 NSCLC
HCC-2998 colon = tested on: HCC-2998 colon
NCI-H460 NSCLC = tested on: NCI-H460 NSCLC
KM12 colon = tested on: KM12 colon
OVCAR-5 ovarian = tested on: OVCAR-5 ovarian
TK-10 renal = tested on: TK-10 renal
HL-60(TB) leukemia = tested on: HL-60(TB) leukemia
IGROV1 ovarian = tested on: IGROV1 ovarian
A498 renal = tested on: A498 renal
A549 NSCLC = tested on: A549 NSCLC
LOX IMVI melanoma = tested on: LOX IMVI melanoma
PC-3 prostate = tested on: PC-3 prostate
EKVX NSCLC = tested on: EKVX NSCLC
RPMI-8226 leukemia = tested on: RPMI-8226 leukemia
SK-MEL-28 melanoma = tested on: SK-MEL-28 melanoma
UACC-62 melanoma = tested on: UACC-62 melanoma
HCT-116 colon = tested on: HCT-116 colon
NCI/ADR-RES ovarian = tested on: NCI/ADR-RES ovarian
NCI-H322M lung = tested on: NCI-H322M lung
MCF7 breast = tested on: MCF7 breast
UACC-257 melanoma = tested on: UACC-257 melanoma
MOLT-4 leukemia = tested on: MOLT-4 leukemia
OVCAR-3 ovarian = tested on: OVCAR-3 ovarian
DU-145 prostate = tested on: DU-145 prostate
CCRF-CEM leukemia = tested on: CCRF-CEM leukemia
NCI-H226 lung = tested on: NCI-H226 lung
U251 glioblastoma = tested on: U251 glioblastoma
ACHN renal = tested on: ACHN renal
MDA-MB-435 melanoma = tested on: MDA-MB-435 melanoma
786-0 renal = tested on: 786-0 renal
NCI-H23 lung = tested on: NCI-H23 lung
HS 578T breast = tested on: HS 578T breast
SK-MEL-5 melanoma = tested on: SK-MEL-5 melanoma
SF-295 CNS = tested on: SF-295 CNS
HCT-15 colon = tested on: HCT-15 colon
BT-549 breast = tested on: BT-549 breast
MDA-MB-468 breast = tested on: MDA-MB-468 breast
SF-539 CNS = tested on: SF-539 CNS
RXF 393 renal = tested on: RXF 393 renal
SW-620 colon = tested on: SW-620 colon
NCI-H522 lung = tested on: NCI-H522 lung
SN12C renal = tested on: SN12C renal
M14 melanoma = tested on: M14 melanoma
SR leukemia = tested on: SR leukemia
HT29 colon = tested on: HT29 colon
K-562 leukemia = tested on: K-562 leukemia
MALME-3M melanoma = tested on: MALME-3M melanoma
SNB-75 CNS = tested on: SNB-75 CNS
SK-MEL-2 melanoma = tested on: SK-MEL-2 melanoma
SK-OV-3 ovarian = tested on: SK-OV-3 ovarian
T-47D breast = tested on: T-47D breast
HOP-92 NSCLC = tested on: HOP-92 NSCLC

In the case of `C[C@@H](Oc1cc(-c2cnn(C3CCNCC3)c2)cnc1N)c1c(Cl)cc(F)cc1Cl`, the GI50 (COLO 205 colon) is reported as 971 nM, the TGI (COLO 205 colon) is reported as 2390 nM and the GI50 (SF-268 CNS) is reported as 2210 nM. It also gave a TGI (SF-268 CNS) of 5.32 µM, a GI50 (UO-31 renal) of 2640 nM and a TGI (UO-31 renal) of 6.43 µM. For the same compound, the GI50 (OVCAR-4 ovarian) was 5.81 µM, the TGI (OVCAR-4 ovarian) was 11 µM and the GI50 (MDA-MB-231 breast) was 1550 nM. It also gave a TGI (MDA-MB-231 breast) of 3.49 µM, a GI50 (OVCAR-8 ovarian) of 2030 nM and a TGI (OVCAR-8 ovarian) of 5.41 µM. For the same compound, the GI50 (CAKI-1 renal) was 1350 nM, the TGI (CAKI-1 renal) was 2980 nM and the GI50 (SNB-19 CNS) was 3.87 µM. It also gave a TGI (SNB-19 CNS) of 8.61 µM, a GI50 (HOP-62 NSCLC) of 2160 nM and a TGI (HOP-62 NSCLC) of 6.37 µM. For the same compound, the GI50 (HCC-2998 colon) was 2210 nM, the TGI (HCC-2998 colon) was 4.91 µM and the GI50 (NCI-H460 NSCLC) was 529 nM. It also gave a TGI (NCI-H460 NSCLC) of 2650 nM, a GI50 (KM12 colon) of 43.1 nM and a TGI (KM12 colon) of 2270 nM. For the same compound, the GI50 (OVCAR-5 ovarian) was 2220 nM, the TGI (OVCAR-5 ovarian) was 6.92 µM and the GI50 (TK-10 renal) was 3.66 µM. The TGI (TK-10 renal) was 7.63 µM, the GI50 (HL-60(TB) leukemia) was 256 nM and the TGI (HL-60(TB) leukemia) was 485 nM. It also gave a GI50 (IGROV1 ovarian) of 2770 nM, a TGI (IGROV1 ovarian) of 7.26 µM and a GI50 (A498 renal) of 1650 nM. For the same compound, the TGI (A498 renal) was 3.84 µM, the GI50 (A549 NSCLC) was 860 nM and the TGI (A549 NSCLC) was 4.42 µM. It also gave a GI50 (LOX IMVI melanoma) of 1330 nM, a TGI (LOX IMVI melanoma) of 2630 nM and a GI50 (PC-3 prostate) of 1940 nM. For the same compound, the TGI (PC-3 prostate) was 5.57 µM, the GI50 (EKVX NSCLC) was 2200 nM and the TGI (EKVX NSCLC) was 6.7 µM. The GI50 (RPMI-8226 leukemia) was 1160 nM, the TGI (RPMI-8226 leukemia) was 2970 nM and the GI50 (SK-MEL-28 melanoma) was 1600 nM. It also gave a TGI (SK-MEL-28 melanoma) of 3.09 µM, a GI50 (UACC-62 melanoma) of 1390 nM and a TGI (UACC-62 melanoma) of 3.09 µM. For the same compound, the GI50 (HCT-116 colon) was 728 nM, the TGI (HCT-116 colon) was 1970 nM and the GI50 (NCI/ADR-RES ovarian) was 6.36 µM. It also gave a TGI (NCI/ADR-RES ovarian) of 16 µM, a GI50 (NCI-H322M lung) of 2880 nM and a TGI (NCI-H322M lung) of 8.37 µM. The GI50 (MCF7 breast) was 614 nM, the TGI (MCF7 breast) was 1860 nM and the GI50 (UACC-257 melanoma) was 1670 nM. It also gave a TGI (UACC-257 melanoma) of 3.04 µM, a GI50 (MOLT-4 leukemia) of 196 nM and a TGI (MOLT-4 leukemia) of 377 nM. It also gave a GI50 (OVCAR-3 ovarian) of 2540 nM, a TGI (OVCAR-3 ovarian) of 6.47 µM and a GI50 (DU-145 prostate) of 2090 nM. It also gave a TGI (DU-145 prostate) of 6.25 µM, a GI50 (CCRF-CEM leukemia) of 277 nM and a TGI (CCRF-CEM leukemia) of 660 nM. For the same compound, the GI50 (NCI-H226 lung) was 1250 nM, the TGI (NCI-H226 lung) was 3.25 µM and the GI50 (U251 glioblastoma) was 2780 nM. The TGI (U251 glioblastoma) was 7.16 µM, the GI50 (ACHN renal) was 1890 nM and the TGI (ACHN renal) was 5.77 µM. The GI50 (MDA-MB-435 melanoma) was 2570 nM, the TGI (MDA-MB-435 melanoma) was 6.79 µM and the GI50 ([…]-0 renal) was 1480 nM. It also gave a TGI (786-0 renal) of 2960 nM, a GI50 (NCI-H23 lung) of 641 nM and a TGI (NCI-H23 lung) of 2420 nM. It also gave a GI50 (HS 578T breast) of 1480 nM, a TGI (HS 578T breast) of 3.71 µM and a GI50 (SK-MEL-5 melanoma) of 1390 nM. The TGI (SK-MEL-5 melanoma) was 2700 nM, the GI50 (SF-295 CNS) was 1210 nM and the TGI (SF-295 CNS) was 4.3 µM. The GI50 (HCT-15 colon) was 1720 nM, the TGI (HCT-15 colon) was 5.47 µM and the GI50 (BT-549 breast) was 1850 nM. The TGI (BT-549 breast) was 3.45 µM, the GI50 (MDA-MB-468 breast) was 725 nM and the TGI (MDA-MB-468 breast) was 1560 nM. For the same compound, the GI50 (SF-539 CNS) was 1700 nM, the TGI (SF-539 CNS) was 3.65 µM and the GI50 (RXF 393 renal) was 1940 nM. It also gave a TGI (RXF 393 renal) of 3.61 µM, a GI50 (SW-620 colon) of 1250 nM and a TGI (SW-620 colon) of 4.65 µM. For the same compound, the GI50 (NCI-H522 lung) was 3.21 µM, the TGI (NCI-H522 lung) was 7.29 µM and the GI50 (SN12C renal) was 2110 nM. For the same compound, the TGI (SN12C renal) was 8.7 µM, the GI50 (M14 melanoma) was 1490 nM and the TGI (M14 melanoma) was 2830 nM. The GI50 (SR leukemia) was 42.3 nM, the TGI (SR leukemia) was 73.8 nM and the GI50 (HT29 colon) was 1020 nM. The TGI (HT29 colon) was 2300 nM, the GI50 (K-562 leukemia) was 131 nM and the TGI (K-562 leukemia) was 262 nM. The GI50 (MALME-3M melanoma) was 1230 nM, the TGI (MALME-3M melanoma) was 2480 nM and the GI50 (SNB-75 CNS) was 1900 nM. It also gave a TGI (SNB-75 CNS) of 3.85 µM, a GI50 (SK-MEL-2 melanoma) of 1450 nM and a TGI (SK-MEL-2 melanoma) of 2760 nM. For the same compound, the GI50 (SK-OV-3 ovarian) was 5.4 µM, the TGI (SK-OV-3 ovarian) was 9.79 µM and the GI50 (T-47D breast) was 2190 nM. For the same compound, the TGI (T-47D breast) was 6.11 µM, the GI50 (HOP-92 NSCLC) was 1030 nM and the TGI (HOP-92 NSCLC) was 2360 nM.
